Structures can show the parent of a compound that is named as a salt. Where two headings read alike, the source gives them in different places.
How the values were obtained:
in vivo = details: male, F344, rat, plasma, oral
AOM-induced colonic ACF = assay: Chemopreventive effects in rats with azoxymethane-induced aberrant crypt foci; type: in vivo, male F344 rats; details: for Foci containing 1 Crypt / Foci containing 2 Crypt / Foci containing 3 Crypt / Foci containing ≧4 Crypts / Total ACF incidence: AOM-treated male F344 rats, Mean ± SEM
From the text: In Vivo Assay of Chemopreventive Effects of Therapeutic Compounds in Rats with Azoxymethane-induced Aberrant Crypt Foci
Azoxymethane (AOM) (CAS:25843-45-2) was purchased from Ash Stevens (Detroit, Mich.). iNOS and COX-2 selective inhibitors were provided by Pharmacia, (St. Louis, […].). Sulindac, a non-selective inhibitor of COX-isoforms and a known inhibitor of colon carcinogenesis, was supplied by the Chemoprevention Branch of the National Cancer Institute (Bethesda, Md.). Weanling male F344 rats were purchased from Charles River Breeding Laboratories (Kingston, N.Y.). All ingredients of the semipurified diet were obtained from Dyets Inc., (Bethlehem, Pa.) and were stored at 4° C. until the experimental diets were prepared. The rats were held in quarantine for 1 week and had access to modified AIN-76A semipurified control diet (Reddy et al., Cancer Res. 50: 2562-2568, 1990, which is herein incorporated by reference.). They were randomly distributed into various dietary groups and were transferred to an animal holding room where they were housed, three rats to a plastic cage, under controlled conditions of a 12-h light/12-h dark cycle, 50% relative humidity and 21° C. room temperature. Experimental diets were prepared by mixing chemopreventive agents with modified AIN-76A control diet.
To quantify aberrant crypt foci, after a minimum of 24 h in buffered formalin, the colons were cut into 2-cm segments starting at the anus; for the next 5-10 min they were placed in a Petri dish containing 0.2% methylene blue in Krebs Ringer solution. They were then placed, mucosal side up, on a microscope slide and observed through a light microscope. Aberrant crypt foci were recorded according to standard procedures that are being used routinely in our laboratory (Rao et al., Carcinogenesis 21: 617-21, 2000; Rao et al., Cancer Res. 53:4182-88, 1993, which are herein incorporated by reference.). […] The parameters used to assess the aberrant crypts were their occurrence and multiplicity. Crypt multiplicity was determined as the number of crypts in each focus and categorized as containing up to 3, or 4 or more aberrant crypts/focus.

NOS = assay: Colonic mucosal NOS activity after dietary treatment; type: in vivo, male F344 rats; details: 100 ppm in diet; AOM-treated rats, colonic mucosa; Mean ± SEM
Method: In Vivo Assay of Modulation of Colonic Mucosal Activities of NOS and COX isoforms by iNOS and COX-2 Inhibitors
NOS and iNOS activities were determined in colonic samples as prepared and described above. Conversion of L-arginine to L-citrulline was measured by a modification of an earlier described method (Rao et al, Carcinogenesis 21, supra; Ambs et al., Cancer Res. 58:334-41, 1998, which is herein incorporated by reference). The assay was carried out by adding 100 μg sample protein to 150 μl of assay buffer [50 mM HEPES, 1 mM DTT, 1 mM MgCl2, 5 mg/L pepstatin A, 0.1 mM PMSF, and 3 mg/L aprotinin, pH 7.4] containing 70 μM arginine, 250,000 dpm L-[^3H]-arginine, 2 mM NADPH, 5μM tetrahydro biopterin, 5 μM flavin adenine dinucleotide, and 0.5 mM CaCi2 to measure total NOS activity, or 1 mM EGTA (without calcium) to determine Ca+^2-independent iNOS activity. After 30 min at 37° C., the reaction was stopped with 100 μl of 1M trichloroacetic acid. Then the samples were adjusted to pH 4.6 by adding 500 μl of 20 mM HEPES and loaded on to Dowex AG 50W-X8 resin columns. L-[^3H]-citrulline was eluted and separated on TLC. Radioactivity was counted by a BioScan Radiomatic detector. Results are expressed as pmol L-[^3H]-citrulline released/mg protein/min.
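Wherever Plasma level is given: plasma drug concentrations quantified by liquid chromatography with tandem mass spectrometry following solid phase extraction, reported as mean ± SEM.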
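Wherever Plasma level of compound XI is given: plasma drug concentrations quantified by liquid chromatography with tandem mass spectrometry following solid phase extraction, reported as mean ± SEM.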
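Wherever absorption is given: plasma drug concentrations quantified by liquid chromatography with tandem mass spectrometry following solid phase extraction, reported as mean ± SEM.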

For `CC(=N)NCCCC[C@H](N)C(=O)Nc1nnn[nH]1` [compound XI, 2S-amino-6-[(1-iminoethyl)amino]-N-(1H-tetrazol-5-yl)hexanamide, hydrate, dihydrochloride], the absorption (3 dose levels (10, 30, 100 ppm in diet)) was “Dose-dependant”, the Plasma level (10 ppm in diet, Early, One week on diet, Mean ± SEM, hydrate, dihydrochloride) was 461 ± 15 ηg/mI and the Plasma level (10 ppm in diet, Late, 9 weeks on diet, Mean ± SEM, hydrate, dihydrochloride) was 254 ± 13 ηg/mI. The Plasma level (10 ppm in diet, Mid, 5 weeks on diet, Mean ± SEM, hydrate, dihydrochloride) was 341 ± 9.7 ηg/mI, the “Plasma level of compound XI” value (30 ppm compound XI + 500 ppm Celecoxib in diet, Early, One week on diet) was 1240 ± 37 + ηg/mI and the “Plasma level of compound XI” value (30 ppm compound XI + 500 ppm Celecoxib in diet, Late, 9 weeks on diet) was 788 ± 63 ηg/mI. For the same compound, the “Plasma level of compound XI” value (30 ppm compound XI + 500 ppm Celecoxib in diet, Mid, 5 weeks on diet) was 901 ± 5.0 + ηg/mI, the Plasma level (30 ppm in diet, first of 3 time points) was 1315 ηg/ml and the Plasma level (30 ppm in diet, second of 3 time points) was 821 ηg/ml. The Plasma level (30 ppm in diet, third of 3 time points) was 742 ηg/ml, the “Plasma level of compound XI” value (100 ppm compound XI + 500 ppm Celecoxib in diet, Early, One week on diet) was 4370 ± 112 + ηg/mI and the “Plasma level of compound XI” value (100 ppm compound XI + 500 ppm Celecoxib in diet, Late, 9 weeks on diet) was 2477 ± 204 + ηg/mI. The “Plasma level of compound XI” value (100 ppm compound XI + 500 ppm Celecoxib in diet, Mid, 5 weeks on diet) was 3096 ± 344 + ηg/mI, the Plasma level (100 ppm in diet, Early, One week on diet, Mean ± SEM, hydrate, dihydrochloride) was 4306 ± 146 ηg/mI and the Plasma level (100 ppm in diet, Late, 9 weeks on diet, Mean ± SEM, hydrate, dihydrochloride) was 2639 ± 268 ηg/mI. The Plasma level (100 ppm in diet, Mid, 5 weeks on diet, Mean ± SEM, hydrate, dihydrochloride) was 2811 ± 82 ηg/mI, the concentration at 1 week on diet (in vivo; 10 ppm in diet) was 461 ng/mL and the concentration at 5 weeks on diet (in vivo; 10 ppm in diet) was 341 ng/mL. The concentration at 9 weeks on diet (in vivo; 10 ppm in diet) was 254 ng/mL, the concentration at 1 week on diet (in vivo; 20 ppm in diet) was 1320 ± 71 ng/mL and the concentration at 5 weeks on diet (in vivo; 20 ppm in diet) was 821 ± 32 ng/mL. The concentration at 9 weeks on diet (in vivo; 20 ppm in diet) was 742 ± 7 ng/mL, the concentration at 1 week on diet (in vivo; 100 ppm in diet) was 4310 ng/mL and the concentration at 5 weeks on diet (in vivo; 100 ppm in diet) was 2810 ng/mL. For the same compound, the concentration at 9 weeks on diet (in vivo; 100 ppm in diet) was 2640 ng/mL, the “Foci containing 1 Crypt” value (AOM-induced colonic ACF; 10 ppm in diet) was 28.2 ± 1.8 and the “Foci containing 2 Crypt” value (AOM-induced colonic ACF; 10 ppm in diet) was 31.7 ± 2.7. The “Foci containing 3 Crypt” value (AOM-induced colonic ACF; 10 ppm in diet) was 29.3 ± 2.3, the “Foci containing ≧4 Crypts” value (AOM-induced colonic ACF; 10 ppm in diet) was 25.6 ± 1.8 and the “Total ACF incidence” value (AOM-induced colonic ACF; 10 ppm in diet) was 115 ± 4.8. For the same compound, the “Foci containing 1 Crypt” value (AOM-induced colonic ACF; 30 ppm in diet) was 28.7 ± 2.9, the “Foci containing 2 Crypt” value (AOM-induced colonic ACF; 30 ppm in diet) was 32.6 ± 1.8 and the “Foci containing 3 Crypt” value (AOM-induced colonic ACF; 30 ppm in diet) was 24.8 ± 1.7. For the same compound, the “Foci containing ≧4 Crypts” value (AOM-induced colonic ACF; 30 ppm in diet) was 22 ± 2.7, the “Total ACF incidence” value (AOM-induced colonic ACF; 30 ppm in diet) was 108 ± 5.5 and the “Foci containing 1 Crypt” value (AOM-induced colonic ACF; 100 ppm in diet) was 28.6 ± 2.2. For the same compound, the “Foci containing 2 Crypt” value (AOM-induced colonic ACF; 100 ppm in diet) was 33.6 ± 2.1, the “Foci containing 3 Crypt” value (AOM-induced colonic ACF; 100 ppm in diet) was 17.7 ± 1.1 and the “Foci containing ≧4 Crypts” value (AOM-induced colonic ACF; 100 ppm in diet) was 13.9 ± 1.1. The “Total ACF incidence” value (AOM-induced colonic ACF; 100 ppm in diet) was 93.8 ± 4.2, the “effect on AOM-induced total colonic ACF and multicrypt clusters of 4 or more crypts” value (AOM-induced colonic ACF; 100 ppm, compared to control diet) was “suppressed” and the “NOS Activity, NOS” value (NOS) was 9.8 ± 1.5 pmoles [^3H]-citrulline/mg pro.
